The values below come from article PMC10046769, “An Impedimetric Biosensor for Detection of Volatile Organic Compounds in Food” (Biosensors, 2023).

pKd: −log10 of the molar value.

The assay has as its target T1, pig odorant-binding protein (pOBP) (Sus scrofa, UniProt P81245).
T1 construct: recombinant pOBP, GST tag removed by thrombin; monomer of 157 amino acids
T1 sequence (P81245 1-157): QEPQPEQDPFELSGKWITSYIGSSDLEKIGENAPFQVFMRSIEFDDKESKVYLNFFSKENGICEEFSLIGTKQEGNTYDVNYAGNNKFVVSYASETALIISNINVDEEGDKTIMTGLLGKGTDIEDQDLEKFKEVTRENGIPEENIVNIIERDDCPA
The assay is described as follows: competitive FRET displacement of 1-AMA; also impedance (EIS) with immobilised pOBP.

In turn, `C=CC(O)CCCCC` (stereo not shown) [1-octen-3-ol] showed a pKd of 1.73.

As a reminder, the pKd is the negative decadic logarithm of the Kd, by convention in mol/L. The low end stands for a high Kd, the high end for a low Kd.
